Here are results for 9 compounds from patent US5610174A, “Use of α1A -selective adrenoceptor agonists for the treatment of urinary incontinence” (priority 1995, dated 1997).

Each structure is given as a SMILES string. Read-outs that look alike come from different tables or passages of the source. Where only a bound is given, the exact number is not on record here.

Test [1] concerns the target T1, human α1A adrenoceptor (Homo sapiens, UniProt P25100).
T1 sequence (P25100 1-572): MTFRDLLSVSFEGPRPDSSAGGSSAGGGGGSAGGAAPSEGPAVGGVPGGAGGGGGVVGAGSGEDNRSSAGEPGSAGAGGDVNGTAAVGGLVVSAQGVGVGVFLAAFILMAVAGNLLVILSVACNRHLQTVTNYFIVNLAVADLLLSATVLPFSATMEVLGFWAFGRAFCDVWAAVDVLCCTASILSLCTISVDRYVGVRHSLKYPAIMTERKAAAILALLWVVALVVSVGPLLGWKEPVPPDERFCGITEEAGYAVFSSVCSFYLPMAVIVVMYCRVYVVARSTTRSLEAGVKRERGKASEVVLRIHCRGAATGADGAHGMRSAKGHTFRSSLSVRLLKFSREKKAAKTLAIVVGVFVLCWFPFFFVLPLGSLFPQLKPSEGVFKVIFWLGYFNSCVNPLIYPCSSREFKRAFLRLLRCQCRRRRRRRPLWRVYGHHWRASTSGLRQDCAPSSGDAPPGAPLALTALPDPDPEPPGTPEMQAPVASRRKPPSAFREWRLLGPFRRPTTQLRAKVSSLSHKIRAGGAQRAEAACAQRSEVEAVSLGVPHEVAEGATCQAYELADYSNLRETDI
Kind of test: biochemical. The format is binding. Here is the method:
(§1) These cell lines were prepared by transfecting the cloned cDNA or cloned genomic DNA or constructs containing both genomic DNA and cDNA encoding the human α-adrenoceptors as follows:
The cells were grown, in a controlled environment (37° C., 5% CO2), as monolayers in Dulbecco's modified Eagle's Medium (GIBCO, Grand Island, N.Y.) containing 25 mM glucose and supplemented with 10% bovine calf serum, 100 units/ml penicillin g, and 100 μg/ml streptomycin sulfate.
(§2) Transfected cells from culture flasks were scraped into 5 ml of 5 mM Tris-HCl, 5 mM EDTA, pH 7.5, and lysed by sonication. The cell lysates were centrifuged at 1000 rpm. for 5 min at 4° C., and the supernatant was centrifuged at 30,000 ×g for 20 min at 4° C. The pellet was suspended in 50 mM Tris-HCl , 1 mM MgCl2, and 0.1% ascorbic acid at pH 7.5. […] The reaction was stopped by filtration through GF/B filters using a cell harvester.

Test [2] has as its target T2, human α1B adrenoceptor (Homo sapiens, UniProt P35368).
T2 construct: The entire coding region of the α1B receptor (1563 bp); expressed in transfected cells
T2 sequence (P35368 1-520): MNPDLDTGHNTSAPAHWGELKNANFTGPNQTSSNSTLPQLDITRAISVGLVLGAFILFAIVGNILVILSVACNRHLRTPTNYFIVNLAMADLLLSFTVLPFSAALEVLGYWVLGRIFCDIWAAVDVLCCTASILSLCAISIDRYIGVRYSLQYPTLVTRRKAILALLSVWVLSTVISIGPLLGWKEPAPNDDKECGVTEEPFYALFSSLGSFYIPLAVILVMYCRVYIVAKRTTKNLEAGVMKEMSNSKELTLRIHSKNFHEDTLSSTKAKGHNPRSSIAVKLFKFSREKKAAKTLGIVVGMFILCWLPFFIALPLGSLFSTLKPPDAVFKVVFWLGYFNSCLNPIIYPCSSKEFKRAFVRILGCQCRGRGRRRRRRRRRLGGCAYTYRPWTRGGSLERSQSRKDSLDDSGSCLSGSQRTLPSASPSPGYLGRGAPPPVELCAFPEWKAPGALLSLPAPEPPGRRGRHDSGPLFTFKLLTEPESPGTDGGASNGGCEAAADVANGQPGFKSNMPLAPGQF
Kind of test: Radioligand binding ([3H]prazosin) at cloned human α1B. Here is the method:
as §1
The construct involved ligating the full-length containing EcoRI brainstem cDNA fragment from λ ZapII into the expression vector. Stable cell lines were obtained as described above.
as §2

Test [3] deals with T3, human α2B adrenoceptor (Homo sapiens, UniProt P18089).
T3 sequence (P18089 1-450): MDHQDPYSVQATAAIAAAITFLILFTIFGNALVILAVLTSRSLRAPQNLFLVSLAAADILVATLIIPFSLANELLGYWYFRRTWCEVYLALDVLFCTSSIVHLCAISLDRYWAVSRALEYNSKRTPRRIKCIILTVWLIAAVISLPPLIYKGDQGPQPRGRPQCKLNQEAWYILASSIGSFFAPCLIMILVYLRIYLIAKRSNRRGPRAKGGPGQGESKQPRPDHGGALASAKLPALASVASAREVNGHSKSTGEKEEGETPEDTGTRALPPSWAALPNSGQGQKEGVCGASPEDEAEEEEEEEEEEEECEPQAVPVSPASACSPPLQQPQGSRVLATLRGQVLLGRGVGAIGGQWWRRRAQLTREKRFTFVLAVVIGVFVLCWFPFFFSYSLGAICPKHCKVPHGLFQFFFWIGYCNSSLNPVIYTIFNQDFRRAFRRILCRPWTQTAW
Kind of test: Inhibition of forskolin stimulated adenylyl cyclase, α2B. The format is cell-based. On the set-up: expressed in transfected cells; host or cells: Y1 cells, line Ya2B-2 (ATCC CRL 11888). To be noted: for Emax: read-out: intrinsic activity (i.a.) α2B. The protocol:
α2 -Adrenoceptor-Mediated Inhibition of Forskolin Stimulated Adenylyl Cyclase
The agonist activity of test compounds was assayed by measuring their ability to inhibit adenylyl cyclase in cells stably transfected with each of the three cloned human α2 -adrenoceptors. LM(tk-) cells expressing the α2A - or the α2C -, as well as Y1 cells expressing the α2B -adrenoceptor were used. […] The formation of cyclic AMP was measured in cultures incubated with DMEM containing 1 mM theophylline. Twelve concentrations of the test compounds (from 10 pM to 100 μM) were added to the incubation medium and incubated at 37° C. for 20 min. Following this incubation step, 10 μM forskolin was added to stimulate the formation of cyclic AMP, and the cultures were incubated for another 10 min. The reaction was stopped by replacing the incubation medium with 100 mM HCl . The intracellular levels of cyclic AMP were measured by radioimmunoassay. The data from concentration-response curves was fitted to a four-parameter logistic equation, by non-linear regression analysis, to determine the pEC50 and intrinsic activity.

The mark [4] stands for this setting: Table 3, agonists, read-out: pKi α1A (converted).
Setting [5] is: agonist, inhibition of forskolin stimulated adenylyl cyclase, read-out: pEC50 α2B (converted).
Setting [6] is: relative to reference full agonist (e.g., norepinephrine = unity).
The mark [7] stands for this setting: Table 2, antagonists, versus 3H-prazosin.

As for `CS(=O)(=O)Nc1c(O)ccc2c1CCCC2C1=NCCN1` (racemic) [Compound A-61603, (±)-N-[5-(4,5-Dihydro-1H-imidazol-2-yl)-2-hydroxy-5,6,7,8-tetra-hydronaphthalen-1-yl]methanesulfonamide], the Ki is 12.6 µM in test [1] (setting [4]) and 15.8 µM in test [2]. Also, the EC50 in test [3] (setting [5]) is 0.0794 µM. The Emax in test [3] (setting [6]) was 80%.

In test [1], `COc1ccc(OC)c(C(O)CN)c1` (racemic) [ST-1059, (±)-2-Amino-1-(2, 5 dimethoxyphenyl) ethanol] showed a Ki of 7.94 µM. In addition, in test [2], the Ki is 12.6 µM. Moreover, in test [3], the EC50 was 0.00251 µM and the Emax came to 60%.

Consider `COc1ccc(SC)c2c1C[C@@H]1[C@@H](C2)OCCN1C` (relative stereo) [SDZ NVI-085, (±)-trans-4-Methyl-6-methoxy-9-thiomethoxy-3,4,4a, 5,10,10a-hexahydro-2H-naphtho[2,3-b][1,4]oxazine], for which the Ki in test [1] (setting [4]) is 2 µM; in test [2] (Table 3, agonists, read-out: pKi α1B (converted)) it was 12.6 µM. Further, in test [3] (setting [5]), the EC50 is more than 100 µM. For the same compound, in test [3], the Emax was found to be 0%.

For `CN[C@@H](C)[C@H](O)c1ccccc1` [(-)-ephedrine], the Ki was 50.1 µM in test [1] and 100 µM in test [2]. Besides, in test [3], the EC50 is 0.251 µM. In addition, the Emax in test [3] was determined as 40%.

On to `C[C@H](N)[C@H](O)c1ccccc1` [(-)-norephedrine], for which, in test [1], the Ki was 25.1 µM. For the same compound, the Ki in test [2] is 50.1 µM. In addition, in test [3], the EC50 is 0.794 µM and the Emax is 50%.

For the compound `CNC[C@H](O)c1cccc(O)c1` [(-)-phenylephrine], in test [1], the Ki is 3.98 µM. For the same compound, in test [3] (setting [6]), the “intrinsic activity (i.a.) α2B” value amounted to 0.8.

For the compound `COc1cc2c(cc1OC)CN(c1cc(N)c3cc(OC)c(OC)cc3n1)CC2` [Abanoquil, 2-(6,7-Dimethoxy-3,4-dihydro-1H-isoquinolin-2-yl)-6,7-dimethoxyquinolin-4-ylamine hemifumarate hydrate], the “pKI (antagonist affinity, 3H-prazosin binding) hα1A” value in test [1] (setting [7]) was found to be 10.4. Also, in test [2] (setting [7]), the “pKI (antagonist affinity, 3H-prazosin binding) hα1B” value worked out at 10.1.

As to `COc1ccccc1N1CCN(CCCNc2c(C)c(=O)n(C)c(=O)n2C)CC1` [Compound 5-MU], the Ki in test [1] (Table 2, antagonists, versus 3H-prazosin, read-out: pKI (antagonist affinity, 3H-prazosin binding) hα1A (converted)) is 0.0158 µM; in test [2] (Table 2, antagonists, versus 3H-prazosin, read-out: pKI (antagonist affinity, 3H-prazosin binding) hα1B (converted)), 0.126 µM.

On to `CNCCc1ccc(O)c(NS(C)(=O)=O)c1` [SK&F 102652], for which the Emax in test [3] was 90%.
